Among the data in patent publication US20120149902A1, “PYRROLO[2,3-D]PYRIMIDINE DERIVATIVE” (UBE INDUSTRIES, LTD., priority 2009, published 2012) are inhibition in vivo, IC50 and GI50 values, retold here.

As a reminder, the IC50 is the midpoint of a concentration-inhibition curve. As usually defined, the GI50 is the concentration that inhibits growth by half. Low values mean greater sensitivity of the cells, high ones lower sensitivity of the cells.

Some results are limits rather than exact numbers.

Assay [1] relates to HER2 overexpressed gastric cancer cell line. Kind of assay: In vivo anti-tumor effect, subcutaneous tumor transplant in nude mouse. The following applies: oral, daily except Saturday and Sunday, 2 to 4 weeks, read-out: Tumor growth inhibition ratio (%); for inhibition in vivo at 60 mg/kg: dosage 60 mg/kg. As to the method: The anti-tumor effect in vivo of a compound of the present invention was evaluated using a HER2 overexpressed gastric cancer cell line. Specifically, a tumor fragment with about 5 mm square was transplanted subcutaneously using a transplantation needle, or an appropriate number of tumor cells was suspended in saline (Otsuka Pharmaceutical Co., Ltd.) and transplanted under the skin of the right axillary region of a nude mouse using a glass syringe equipped with a two-stage needle for subcutaneous injection. After the confirmation of the engraftment of the transplanted tumors, the mice were classified into groups depending on the tumor volume. The test compounds: the Example Compounds 1-1, 1-2, 1-5, 1-8, 1-13, 1-14, 1-15, 1-19, 1-20, 1-22, 2-1, 2-3, and 3-2 were each dissolved or suspended in an appropriate medium and orally administered forcedly to a mouse. The period of administration was varied from 2 weeks to 4 weeks depending on tumor, and the administration was carried out daily with drug holidays of Saturday and Sunday. The major axis (mm) and the minor axis (mm) of a tumor were measured sequentially using an electronic digital vernier caliper, and evaluated by the tumor growth inhibition ratio (GI %) on the judgement day (in principle, the next day of the final administration) using the following calculating formula.
A: Average tumor volume on the judgement day of the group to which a compound was administered (*)
B: Average tumor volume on the judgement day of the untreated control group (*)
*: The tumor volume is calculated by ½×[major axis of tumor]×[minor axis of tumor]^2.

The target of assay [2] is T1, purified human recombinant HER2 kinase (Lys676-Val1255, GST fusion) (Homo sapiens, UniProt P04626).
T1 construct: human recombinant HER2 kinase (Lys676-Val1255, GST fusion); GST
T1 sequence (P04626 676-1255): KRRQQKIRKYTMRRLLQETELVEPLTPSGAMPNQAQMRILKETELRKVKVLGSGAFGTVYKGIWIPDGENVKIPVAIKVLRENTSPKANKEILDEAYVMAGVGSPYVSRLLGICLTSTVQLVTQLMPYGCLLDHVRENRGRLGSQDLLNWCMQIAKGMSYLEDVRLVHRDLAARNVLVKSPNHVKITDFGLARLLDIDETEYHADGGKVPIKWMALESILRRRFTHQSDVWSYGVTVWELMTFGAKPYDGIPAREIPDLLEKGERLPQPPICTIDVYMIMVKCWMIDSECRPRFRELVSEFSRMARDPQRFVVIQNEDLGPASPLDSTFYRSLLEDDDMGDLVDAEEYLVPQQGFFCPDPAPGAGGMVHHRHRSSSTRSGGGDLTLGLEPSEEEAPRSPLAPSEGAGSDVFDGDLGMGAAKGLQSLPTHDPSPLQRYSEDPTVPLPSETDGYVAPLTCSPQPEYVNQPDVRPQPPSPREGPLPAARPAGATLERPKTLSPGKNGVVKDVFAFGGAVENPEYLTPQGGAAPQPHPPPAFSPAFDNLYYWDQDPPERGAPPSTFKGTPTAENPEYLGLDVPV
Kind of assay: HER2 kinase enzyme inhibitory activity (HTRF). Particulars: 200 μM ATP, FLT3 analogous peptide substrate, 60 minutes at room temperature. Type of assay: biochemical. How it is done: The HER2 kinase enzyme inhibitory activity of a compound of the present invention was evaluated by using a purified human recombinant HER2 kinase (Lys676-Val1255, GST fusion) and a synthetic peptide as a substrate, and detecting the phosphorylation level of the substrate by the HTRF method (homogeneous time resolved fluorescence method). Specifically, 25 ng/well of activated HER2, 200 μM of ATP, 200 ng/well of FLT3 analogous peptide (biotin label, peptide sequence is AGGSSDNEYFYVDF), and test compound (final concentration 0.01 nM to 30 μM) were mixed in kinase reaction buffer (60 mM HEPES, 5 mM MgCl2, 5 mM MnCl2, 3 mM Na3VO4, 1.25 mM DTT, pH 7.5) to prepare 50 μL/well of total reaction volume, and the mixture was reacted for 60 minutes at room temperature. Then, the phosphorylation reaction was stopped and HTRF reaction was carried out by adding 25 μL/well of PBS solution comprising the following components and reacting the mixture for 12 to 16 hours at 4° C. The following components were dissolved in PBS (pH 7.0) to prepare the PBS solution composition: 60 mM EDTA (final concentration 20 mM), 1.2 M KF (final concentration […]), 1 mg/mL BSA (final concentration 333 μg/mL), 6 μg/mL anti-PY20-Cryptate (Cisbio international, France, final concentration 2 μg/mL), and 15 μg/mL Streptavidin labeled with XL665 (Cisbio international, France, final concentration 5 μg/mL).
In general terms: TR-FRET usually uses a lanthanide donor and a delayed reading to cut background.

Assay [3] has as its system HER2 overexpressed gastric cancer cell line NCI-N87. Kind of assay: Cytotoxic activity (in vitro), CellTiter-Glo viable cell count. Type of assay: cell-based. Particulars: Homo sapiens, NCI-N87, 72 h, NCI-N87, cultured for 72 hours. How it is done: The cytotoxic activity of a compound of the present invention was investigated using a HER2 overexpressed gastric cancer cell line NCI-N87. Specifically, an appropriate amount of cells was seeded into a 96-well plate for cell culture at 50 μL/well, and precultured overnight at 37° C. under 5% —CO2 condition. A solution of a test compound in DMSO with dilution series was diluted with medium, and added to the precultured cells at the volume of 50 μL/well. The mixture was prepared such that the final concentration of DMSO became 0.1%. After the mixture was cultured for 72 hours at 37° C. under 5% —CO2 condition, 100 μL/well of CellTiter-Glo solution (Promega, Madison, Wis.) was added, the luminescence was measured using a luminometer (Wallac ARVO™ SX) 10 minutes later, and the viable cell count was determined.
Background: ATP-based viability assays read luminescence as a measure of living cells.

Turning to `COc1ccc(Nc2ncnc3[nH]cc(CN4CCC(N)CC4)c23)cc1` [Example 1-19, [5-(4-Aminopiperidin-1-ylmethyl)-7H-pyrrolo[2,3-d]pyrimidin-4-yl](4-methoxyphenyl)amine], the inhibition in vivo at 100 mg/kg in assay [1] (dosage 100 mg/kg) worked out at 44%. The half-maximal inhibitory concentration (IC50) in assay [2] was ≥ 100 nM. The molecule also registered a GI50 in assay [3] of 50 to 500 nM.
On to `C#CCNC1CCN(Cc2c[nH]c3ncnc(Nc4cccc(C#C)c4)c23)CC1` [Example 3-2, (3-Ethynylphenyl) [5-(4-prop-2-ynylaminopiperidin-1-ylmethyl)-7H-pyrrolo[2,3-d]pyrimidin-4-yl]amine], for which the inhibition in vivo at 60 mg/kg in assay [1] came to 91%. Further, the IC50 in assay [2] was < 10 nM. Also, the concentration for 50% growth inhibition (GI50) in assay [3] was < 20 nM.
Regarding `CC1(N)CCN(Cc2c[nH]c3ncnc(Nc4ccc5occc5c4)c23)CC1` [Example 1-15, [5-(4-Amino-4-methylpiperidin-1-ylmethyl)-7H-pyrrolo[2,3-d]pyrimidin-4-yl](benzofuran-5-yl)amine], in assay [1], the inhibition in vivo at 60 mg/kg was determined as 90%. Besides, the IC50 in assay [2] was 10 to 50 nM. The same molecule yielded a GI50 in assay [3] of 20 to 50 nM.
